Where a name gives a salt, the structure may show the parent alone.
How the values were obtained:
FAAH = target: T1, FAAH (Rattus norvegicus, UniProt P97612); experiment: Screening for an FAAH activity inhibiting substance using a rat brain homogenate (IC50); assay type: biochemical; details: radiolabeled anandamide substrate, 1 hour
T1 construct: the rat brain homogenate was diluted so that its protein concentration could be 60 μg/ml, thereby preparing an enzyme solution; from tissue; host or cells: rat cerebrum (SD-line male rat, 10 weeks) homogenate, 15000 x g pellet
T1 sequence (P97612 1-579): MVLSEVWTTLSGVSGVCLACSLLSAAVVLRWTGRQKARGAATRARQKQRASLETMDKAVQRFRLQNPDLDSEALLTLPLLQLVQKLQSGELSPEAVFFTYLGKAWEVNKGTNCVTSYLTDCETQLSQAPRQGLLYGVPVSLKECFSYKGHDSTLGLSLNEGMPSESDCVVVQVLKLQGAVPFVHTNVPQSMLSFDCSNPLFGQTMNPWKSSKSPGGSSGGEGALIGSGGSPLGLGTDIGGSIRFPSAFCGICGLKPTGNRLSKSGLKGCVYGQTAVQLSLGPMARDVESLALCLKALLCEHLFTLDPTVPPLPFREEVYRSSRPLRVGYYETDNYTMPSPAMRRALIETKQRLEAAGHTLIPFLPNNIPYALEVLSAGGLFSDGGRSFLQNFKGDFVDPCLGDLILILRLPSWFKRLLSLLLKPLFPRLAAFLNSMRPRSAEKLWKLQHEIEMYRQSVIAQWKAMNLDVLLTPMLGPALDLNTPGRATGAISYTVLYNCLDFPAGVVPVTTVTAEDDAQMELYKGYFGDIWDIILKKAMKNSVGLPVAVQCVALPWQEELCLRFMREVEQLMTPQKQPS
Procedure: Screening for an FAAH Activity Inhibiting Substance Using a Rat Brain Homogenate
(1) Preparation of a Rat Brain Homogenate
The head of a 10-week-old SD-line male rat (Japan SLC., Inc.) was cut off, and its cerebrum was taken out and weighed. Five times by volume its weight of an ice-cooled buffer (50 mM Tris-HCl (pH 7.4), 0.32 M sucrose) was added, and this was homogenized with a homogenizer in ice to give a uniform suspension. This was centrifuged (1500×g, 4° C., 15 minutes), and the supernatant was again centrifuged (15000×g, 4° C., 20 minutes) to obtain a precipitate. Further, using an ultrasonic wave generator (UR-20P, TOMY SEIKO CO., LTD.), this was ultrasonicated (power dial 4) for 5 seconds. The protein concentration of the resulting homogenate was measured according to a dye-coupling method (protein assay CBB solution, NACALAI TESQUE, INC.). Using a buffer (50 mM Tris-HCl (pH 8.0), 1 mM EDTA, 0.1 mg/ml BSA, 100 mM NaCl), the rat brain homogenate was diluted so that its protein concentration could be 60 μg/ml, thereby preparing an enzyme solution.
(2) Screening for an FAAH Activity Inhibiting Substance
A substrate solution was prepared, comprising 2 μCi/ml radiolabeled anandamide (Anandamide [ethanolamine 1-^3H] (American Radiolabeled Chemical)), 8 μM anandamide (Funakoshi), 50 mM Tris-HCl (pH 8.0), 1 mM EDTA, 0.1 mg/ml BSA and 100 mM NaCl. Test substance solutions were prepared, dissolved in DMSO to have a concentration from 1 nM to 100 μM. 50 μl of the substrate solution and 1 μl of the test substance solution were added to 50 μl of the enzyme solution, and left for 1 hour. As a control, DMSO was added in place of the test substance solution. To this, added was 200 μl of a 1:1 (ratio by volume) solution of chloroform/methanol, followed by vortexing. This was centrifuged (15000 rpm, 2 minutes), whereby the decomposed product ethanolamine (ethanolamine 1-^3H) was separated in the upper layer (water/methanol layer) and the unreacted radiolabeled anandamide (Anandamide [ethanolamine 1-^3H]) was in the lower layer (chloroform layer). 30 μl of the upper layer was transferred into a 96-well organic solvent-resistant white microplate (PicoPlate-96; Perkin Elmer, Inc.), 150 μl of Microscint-20 (Perkin Elmer, Inc.) was added thereto, and this was measured with a microplate scintillation counter (TopCount™; Beckman Coulter, Inc.). As compared with the control, the substance that gave a decreased value was selected as an FAAH activity-inhibiting substance.
(3) Measurement of the IC50 Value of the FAAH Activity Inhibiting Substance
The compound was dissolved in DMSO to have a varying concentration from 1 nM to 100 μM to prepare test substance solutions. According to the method mentioned above, the compound was analyzed for its influence on FAAH activity. As a control, DMSO was used. A measured value of a case where a buffer (50 mM Tris-HCl (pH 8.0), 1 mM EDTA, 0.1 mg/ml BSA, 100 mM NaCl) was reacted in place of the enzyme solution was subtracted from every measured value. Based on the measured value of the control, 100%, the IC50 value of the test substance was determined. Furthermore, Ex represents the Example No. as denoted below.

[1] = system: cyclophosphamide (CPA)-induced urinary frequency; experiment: Effect of compound on cyclophosphamide (CPA)-induced urinary frequency in a rat (effective bladder capacity); assay type: in vivo; details: CPA (100 mg/kg i.p.)-treated Wistar female rats, p.o.; for effective dose in oral administration: effective bladder capacity over 1 hour
Procedure: Effect of Compound on Cyclophosphamide (CPA)-Induced Urinary Frequency in a Rat
Compounds were tested for their bladder irritation-relieving effect, using pathologic models. It is known that systemic administration of cyclophosphamide (CPA) converts the compound into its metabolite, acrolein, and, as existing in urine, this injures the bladder mucosa. In rats, CPA administration induces bladder pain or urinary frequency accompanied by hemorrhagic cystitis, and therefore using such rats, it is possible to evaluate the potency of drug for these symptoms. In this experiment, used were 9-week-old Wistar female rats (Charles River). CPA (100 mg/kg) was intraperitoneally administered to the rats, and after 2 days, the rats were tested. A test compound was orally administered (p.o.) to the rats; and after 15 minutes, distilled water (30 ml/kg) was forcedly orally administered thereto. The rats were put in a metabolic cage, and the weight of their urine was continuously measured for 1 hour. The overall urine amount was divided by the overall urination frequency, and the effective bladder capacity was thus calculated. […] In oral administration, the effective doses of compounds of Examples 155 and 210 were 10 mg/kg and 3 mg/kg, respectively.

| IC50 (FAAH) [nM] | SMILES | effect on effective bladder capacity / urinary frequency [1] | effective dose in oral administration [1] [mg/kg] |
| --- | --- | --- | --- |
| 3.3 | O=C(Nc1cnccn1)N1CCN(C(=O)c2cccc(OCCC3CCCCC3)c2)CC1 [Example 210] | increased the reduced effective bladder capacity, and relieved the condition of urinary frequency | 3 |
| 42 | CN(CCC1CCCCC1)c1ccc(C(=O)N2CCN(C(=O)Nc3cccnc3)CC2)cc1 [Example 334] | – | – |

The next lines start with the compound.

| SMILES | IC50 (FAAH) [nM] | effect on effective bladder capacity / urinary frequency [1] | effective dose in oral administration [1] [mg/kg] |
| --- | --- | --- | --- |
| O=C(Nc1cccnc1)N1CCN(Cc2ccnc(OCCC3CCCCC3)c2)CC1 [Example 30, 4-{[2-(2-cyclohexylethoxy)pyridin-4-yl]methyl}-N-pyridin-3-ylpiperazine-1-carboxamide trihydrochloride] | 30 | – | – |
| O=C(Nc1cnccn1)N1CCN(C(=O)c2ccnc(OCCC3CCCCC3)c2)CC1 [Example 38, 4-[2-(2-cyclohexylethoxy)isonicotinoyl]-N-pyrazin-2-ylpiperazine-1-carboxamide] | 5 | – | – |
| O=C(Nc1ncccn1)N1CCN(C(=O)c2cccc(OCCC3CCCCC3)c2)CC1 [Example 155] | 25 | increased the reduced effective bladder capacity, and relieved the condition of urinary frequency | 10 |
| COCC(=O)NC(=O)N1CCN(Cc2cccc(OCCC3CCCCC3)c2)CC1 [Example 439] | 25 | – | – |
